The record followed here is US20100003228A1, “T-CELL VACCINE” (priority 2006, published 2010).

Assay [1] has as its system myelin-reactive T cells. Put plainly: Growth of myelin reactive T cell lines with low stimulation indices. The class given is cell-based, human. An excerpt: Using the algorithms described above, statistically significant SIs as low as 1.3 have been observed and therefore should be able grow in response to antigen. To verify this ability, 5 cell lines across two patients are shown with an SI<2.0. The results are shown in Table 12 and FIG. 24, which indicate growth of these cell lines with only peptide antigen stimulation and common T cell growth factors.
PBMC for subject 1042 were run in the EAA, and […] were positive, including PLPm18 with an SI of 1.8, PLPm26 with an SI of 2.5 and PLPm28 with an SI of 2.5. […] PBMC for subject 1014 were run in the EAA, and 4 mixes were positive, including MBPm14 with an SI of 1.7, PLPm17 with an SI of 1.7, PLPm28 with an SI of 2.2 and MOGm6 with an SI of 1.9. […]
PBMCs were isolated via density gradient centrifugation from peripheral blood obtained through venipuncture into ACD-1 anticoagulant. PBMCs were plated at 2.5E+06 cells/well in 24 well plates. Antigen in the form of 16mer peptides identified in the EAA were added at a final concentration of 20 ug/ml. Interluekin-2 (IL-2) was added at a final concentration of 100 U/ml starting at 48 hours and IL-2 was added at the same concentration with each feeding or splitting of wells. Peptide restimulation in the presence of antigen presenting cells (APCs-autologous PBMCs irradiated at 3500 rad) was done at days 7, 14 and 21. Interleukin-15 (IL-15) was added at a final concentration of 5 ng/ml-20 ng/ml (lot specific) starting at day 14 and continued through the remainder of the culture period. Cells lines were all harvested by day 35 and had achieved expansions of 3.0-8.2 fold.

In assay [2] the test system is myelin reactive T cells in PBMCs. As to the kind of experiment: EAA with positivity by Variance Evaluation Method or CPM Variance Method (clinical trials). The format is cell-based, human. Conditions: clinical trial population, RR-MS or CIS subjects. An excerpt:
The predetermined value may also be calculated using a Variance Evaluation Method as follows: • 1. EAAs may be run on a given patient population (minimum of 120 assays from 120 unique subjects) • 2. A “negative population” may be created by averaging all SI values<2.5 • 3. The Standard Deviation (SD) may be calculated for each peptide • 4. The following for each peptide may be then be calculated: • a. Average+1SD • b. Average+2SD • c. Average+3SD • 5. The following SIs may be considered above the predetermined value: • a. SI greater than or equal to the average+3SD • b. Any SI greater than or equal to 2.5
The predetermined value may also be evaluated using a Counts per Minute (CPM) Variance Method. This algorithm may set a comprehensive cutoff for all peptides within a given assay. It may be calculated as follows: • 1. EAAs may be run and the CPM for all control (media only, no antigen) wells averaged. • 2. The SD for CPM of the control wells may then be calculated. • 3. The following may then be calculated for the control wells: • a. Average+1SD • b. Average+2SD • c. Average+3SD • 4. Any peptide with an average CPM greater than or equal to the average+3SD of the control wells may be considered above the predetermined value.
Any peptide, either analyzed in an individual well or as averaged over wells run in triplicate, with an SI≧2.5, an SI≧average+3SD by the Variance Evaluation Method, or an SI≧average+3SD by the CPM variance method may be considered above the predetermined value, which may indicate a T cell(s) positive for reactivity to a peptide.
The peptides of Example 3 have been tested in 429 EAAs in clinical trials as follows. […] Pre-Vaccine EAAs have 158 positive out of 387 assays (40.8%), with Relapse Remitting MS patients (RRMS) showing 150 positive of 368 assays (40.8%), and Clinically Isolated Syndrome (CIS) patients showing 8 positive of 19 assays (42.1%).
Over the course of 6 months a study was conducted with 120 subjects meeting the criteria for the clinical trial.
The above mentioned population of subjects was evaluated by EAA using the Variance Evaluation Method and CPM Variance Method as described above, and deemed eligible for vaccine production. Of the 120 attempts to manufacture vaccine, there were 2 shipping failures (blood was not received within our stated criteria), 1 culture was lost to contamination and 5 samples arrived with low cell volume/yield. Of the remaining 112 subjects, vaccine was successfully generated in 89 subjects, with 22 still in production (98.9% of eligible samples, 92.5% of all samples completed). From this, a positive EAA was deemed predictive of the ability to manufacture a vaccine to therapeutic dose by methods disclosed herein.

As to “MOGm6: mix of MOG 11 and MOG 12 (chain 1 RPPFSRVVHLYRNGKD; chain 2 SRVVHLYRNGKDQDGD)”, the “Fold Expansion” value in assay [1] (subject 1014, Day 0) is given as 1.3; in assay [1] (subject 1014, Day 17) it was 0.7; in assay [1] (subject 1014, Day 19), 1.3; in assay [1] (subject 1014, Day 28), 4.1; in assay [1] (subject 1014, Day 33), 4.4; in assay [1] (subject 1014, Day 35) it was 3.7. The “Viable Cell Count, Count/well” value in assay [1] (subject 1014, Day 0) is 2.50E+06; in assay [1] (subject 1014, Day 17), 2.18E+06; in assay [1] (subject 1014, Day 19), 4.27E+06; in assay [1] (subject 1014, Day 28), 4.35E+06; in assay [1] (subject 1014, Day 33), 4.71E+06; in assay [1] (subject 1014, Day 35) it was 3.93E+06. Moreover, the “Viable Cell Count, Total Cells” value stood at 3.00E+07 in assay [1] (subject 1014, Day 0); 1.96E+07 in assay [1] (subject 1014, Day 17); 3.84E+07 in assay [1] (subject 1014, Day 19); 1.22E+08 in assay [1] (subject 1014, Day 28); 1.32E+08 in assay [1] (subject 1014, Day 33); 1.10E+08 in assay [1] (subject 1014, Day 35). Moreover, in assay [2], the “# of Subjects (frequency of identification)” value (shortened to “# of Subjects”) is given as 4. Moreover, the “% of Subjects (frequency of identification)” value (from here on “% of Subjects”) in assay [2] was found to be 3.4%.
“PLPm26: mix of PLP 51 and PLP 52 (chain 1 CADARMYGVLPWNAFP; chain 2 RMYGVLPWNAFPGKVC)”: the “Fold Expansion” value stood at 1.0 in assay [1] (subject 1042, Day 0); 0.6 in assay [1] (subject 1042, Day 14); 1.0 in assay [1] (subject 1042, Day 19); 3.0 in assay [1] (subject 1042, Day 26); 4.2 in assay [1] (subject 1042, Day 33); 5.7 in assay [1] (subject 1042, Day 35). Moreover, the “Viable Cell Count, Count/well” value amounted to 2.50E+06 in assay [1] (subject 1042, Day 0); 1.50E+06 in assay [1] (subject 1042, Day 14); 2.40E+06 in assay [1] (subject 1042, Day 19); 3.73E+06 in assay [1] (subject 1042, Day 26); 2.61E+06 in assay [1] (subject 1042, Day 33); 3.54E+06 in assay [1] (subject 1042, Day 35). The “Viable Cell Count, Total Cells” value in assay [1] (subject 1042, Day 0) came out at 3.00E+07; in assay [1] (subject 1042, Day 14) it was 1.80E+07; in assay [1] (subject 1042, Day 19), 2.88E+07; in assay [1] (subject 1042, Day 26), 8.95E+07; in assay [1] (subject 1042, Day 33) it was 1.25E+08; in assay [1] (subject 1042, Day 35) it was 1.70E+08. The “# of Subjects” value in assay [2] is 28. Further, in assay [2], the “% of Subjects” value is reported as 23.5%.
In the case of “PLPm28: mix of PLP 55 and PLP 56 (chain 1 GKVCGSNLLSICKTAE; chain 2 GSNLLSICKTAEFQMT)”, the “Fold Expansion” value in assay [1] (subject 1014, Day 0) is 1.0; in assay [1] (subject 1014, Day 17), 0.9; in assay [1] (subject 1014, Day 19), 1.4; in assay [1] (subject 1014, Day 28) it was 2.8; in assay [1] (subject 1014, Day 33) it was 5.2; in assay [1] (subject 1014, Day 35), 5.3. The “Fold Expansion” value stood at 1.0 in assay [1] (subject 1042, Day 0); 0.6 in assay [1] (subject 1042, Day 14); 1.5 in assay [1] (subject 1042, Day 19); 3.5 in assay [1] (subject 1042, Day 26); 7.4 in assay [1] (subject 1042, Day 33); 8.2 in assay [1] (subject 1042, Day 35). For the same substance, the “Viable Cell Count, Count/well” value in assay [1] (subject 1014, Day 0) worked out at 2.50E+06; in assay [1] (subject 1014, Day 17) it was 3.09E+06; in assay [1] (subject 1014, Day 19) it was 2.41E+06; in assay [1] (subject 1014, Day 28), 2.81E+06; in assay [1] (subject 1014, Day 33), 5.17E+06; in assay [1] (subject 1014, Day 35) it was 5.33E+06. Also, the “Viable Cell Count, Count/well” value in assay [1] (subject 1042, Day 0) came out at 2.50E+06; in assay [1] (subject 1042, Day 14), 1.56E+06; in assay [1] (subject 1042, Day 19) it was 3.82E+06; in assay [1] (subject 1042, Day 26), 4.34E+06; in assay [1] (subject 1042, Day 33), 4.61E+06; in assay [1] (subject 1042, Day 35), 5.15E+06. The “Viable Cell Count, Total Cells” value in assay [1] (subject 1014, Day 0) turned out to be 2.25E+07; in assay [1] (subject 1014, Day 17), 2.78E+07; in assay [1] (subject 1014, Day 19) it was 4.34E+07; in assay [1] (subject 1014, Day 28) it was 8.43E+07; in assay [1] (subject 1014, Day 33), 1.55E+08; in assay [1] (subject 1014, Day 35), 1.60E+08. Further, the “Viable Cell Count, Total Cells” value in assay [1] (subject 1042, Day 0) is reported as 3.00E+07; in assay [1] (subject 1042, Day 14), 1.87E+07; in assay [1] (subject 1042, Day 19), 4.58E+07; in assay [1] (subject 1042, Day 26), 1.04E+08; in assay [1] (subject 1042, Day 33), 2.21E+08; in assay [1] (subject 1042, Day 35), 2.47E+08. For the same substance, in assay [2], the “# of Subjects” value came out at 6. For the same substance, the “% of Subjects” value in assay [2] was found to be 5.0%.
Regarding “MOGm26: mix of MOG 51 and MOG 52 (chain 1 WLHRRLAGQFLEELRN; chain 2 RLAGQFLEELRNPF)”, in assay [2], the “# of Subjects” value is 9 and the “% of Subjects” value was 7.6%.
“MOGm20: mix of MOG 39 and MOG 40 (chain 1 LRGKLRAEIENLHRTF; chain 2 LRAEIENLHRTFDPHF)”: in assay [2], the “# of Subjects” value turned out to be 1 and the “% of Subjects” value was found to be 0.8%.
On to “MOGm2: mix of MOG 3 and MOG 4 (chain 1 RHPIRALVGDEVELPC; chain 2 RALVGDEVELPCRISP)”, for which, in assay [2], the “# of Subjects” value came out at 6 and the “% of Subjects” value is 5.0%.
On to “MOGm22: mix of MOG 43 and MOG 44 (chain 1 DPHFLRVPCWKITLFV; chain 2 LRVPCWKITLFVIVPV)”, for which, in assay [2], the “# of Subjects” value worked out at 2 and the “% of Subjects” value worked out at 1.7%.
On to “PLPm22: mix of PLP 43 and PLP 44 (chain 1 CSAVPVYIYFNTWTTC; chain 2 PVYIYFNTWTTCQSIA)”, for which, in assay [2], the “# of Subjects” value is 2 and the “% of Subjects” value turned out to be 1.7%.
Take FAVLKLMGRGTKF [PLP67]: in assay [2], the “# of Subjects” value is 5 and the “% of Subjects” value is 4.2%.
“MOGm7: mix of MOG 13 and MOG 14 (chain 1 HLYRNGKDQDGDQAPE; chain 2 NGKDQDGDQAPEYRGR)”: in assay [2], the “# of Subjects” value is on record as 5 and the “% of Subjects” value is 4.2%.
